Results published in ChEMBL document CHEMBL1155684, “Preparation, stereochemistry, and cytotoxic activity of the melampolides from Mikania minima” (J Nat Prod, 2000).

What was measured:
Type in all cases: functional, cell-based
P388 = assay: Cytotoxicity against mouse P388 cells
A549 = assay: Cytotoxicity against human A549 cells
HT-29 = assay: Cytotoxicity against human HT29 cells

Compound	IC50 (P388) [nM]	IC50 (A549) [nM]	IC50 (HT-29) [nM]
C=C1C(=O)O[C@@H]2/C=C(\COC(C)=O)CC/C=C(/CO)C[C@H](OC(C)=O)[C@@H]12	2700	5500	
C=C1C(=O)O[C@@H]2/C=C(\COC(C)=O)CC/C=C(/C=O)C[C@H](OC(C)=O)[C@@H]12	1400	2800	2800
